Laboratory results reported in PubChem BioAssay (NCI).
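Protocol summary: plate cells (96-well), add compound at 5 concentrations, incubate 48 h, interpolate endpoints linearly. GI50 marks 50% less growth. The concentration for full growth arrest is given as TGI.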

Experiments:
Test in all cases: inhibition of tumour cell growth, NCI panel, 48 h
A498 renal = tested on: A498 renal
COLO 205 colon = tested on: COLO 205 colon
MDA-MB-435 = tested on: MDA-MB-435
NCI/ADR-RES ovarian = tested on: NCI/ADR-RES ovarian
OVCAR-8 ovarian = tested on: OVCAR-8 ovarian
RPMI-8226 leukemia = tested on: RPMI-8226 leukemia
UACC-257 melanoma = tested on: UACC-257 melanoma
K-562 leukemia = tested on: K-562 leukemia

Row | SMILES | GI50 (A498 renal) [µM] | TGI (A498 renal) [µM] | GI50 (COLO 205 colon) [µM] | TGI (COLO 205 colon) [µM] | GI50 (MDA-MB-435) [µM] | TGI (MDA-MB-435) [µM] | GI50 (NCI/ADR-RES ovarian) [µM] | TGI (NCI/ADR-RES ovarian) [µM] | GI50 (OVCAR-8 ovarian) [µM] | TGI (OVCAR-8 ovarian) [µM] | GI50 (RPMI-8226 leukemia) [µM] | TGI (RPMI-8226 leukemia) [µM] | GI50 (UACC-257 melanoma) [µM] | TGI (UACC-257 melanoma) [µM] | GI50 (K-562 leukemia) [µM] | TGI (K-562 leukemia) [µM]
1 | O=S(=O)(NC1=NCCN1C(=S)SN1CCn2c1nsc2=S)c1ccc(Oc2ccccc2)cc1 | 34.2 | 97 | > 100 | > 100 | 30.4 | > 100 | 77.4 | > 100 | > 100 | > 100 | 30.2 | > 100 | > 100 | > 100 | – | –
2 | O=C1/C(=C\c2ccc(F)cc2)CN(C(=O)c2ccccc2F)C/C1=C\c1ccc(F)cc1 | 2.02 | 6.71 | 1.86 | 3.54 | 0.547 | 2.06 | 2.8 | 16.4 | 1.72 | 5.14 | 0.137 | 0.817 | 1.71 | 3.47 | 0.414 | –
3 | Cc1ccc(N)cc1[As]=[As]c1cc(N)ccc1C (centres undefined) | 1.29 | 2.64 | 1.33 | 2.77 | 1.62 | 3.25 | 3.19 | > 100 | 1.57 | 2.98 | 1.07 | 4.45 | 1.25 | 2.54 | 0.341 | > 100
4 | CCN(CC)CCNC(=O)c1cccc2c1-c1ccccc1C2=O | > 100 | > 100 | > 100 | > 100 | > 100 | > 100 | > 100 | > 100 | > 100 | > 100 | 66.3 | > 100 | > 100 | > 100 | > 100 | > 100
5 | CN1CCC2(CC1)N=C(SCC(=O)Nc1cnc3ccccc3c1)C(c1ccc(Br)cc1)=N2 | 3.96 | 14.9 | 1.64 | 3.35 | 1.72 | 3.21 | 2.27 | 5.76 | 2.33 | 5.54 | 2.12 | 4.9 | 1.79 | 3.31 | 1.89 | 5.05
6 | CN1CCN(CCCNC(=O)c2c3c(n4ccccc24)C(=O)c2ncccc2C3=O)CC1 | 10 | 25.1 | 0.563 | 1.67 | 0.295 | 0.619 | 12 | 64.6 | 0.888 | 5.99 | 3.02 | > 24.4 | 0.971 | 2.3 | 1.39 | > 32.4
7 | COC(=O)C1C(C(=O)O)C2(c3ccccc3)C(=O)C1(c1ccccc1)C(c1ccccc1)=C2c1ccccc1 (centres undefined) | 15.2 | 29.3 | 18.8 | 39.3 | 24.4 | 58.9 | 18.4 | 34 | 18.8 | 35.9 | 15.7 | 45.7 | 19.6 | 40.9 | 21.8 | > 100
8 | NC(=O)c1c(NC(=O)c2cccs2)sc2c1CCC(=O)C2 | 6 | 52.9 | – | – | 2.95 | 10.6 | 2.5 | 26.4 | 3.02 | > 100 | – | – | 2.73 | 7.08 | 0.736 | > 100
9 | COC(=O)[C@]12CC[C@@H](C)[C@H](C)[C@@H]1C1=CC[C@@H]3[C@@]4(C)C(C=O)=C[C@@](C)(CO)[C@@H]4[C@H](O)C[C@@]3(C)[C@]1(C)CC2 | 6.37 | 19.4 | 2.17 | 4.93 | 3.29 | 13.4 | 4.12 | 34.6 | 3.51 | 14.4 | 2.44 | 7.74 | 3.11 | 13.1 | 3.86 | 15.5
10 | CCN1CCN(c2nc(C)cc(NCc3cc(Nc4ccnc5cc(Cl)ccc45)ccc3F)n2)CC1 | 1.94 | 4.01 | 1.77 | 3.95 | 1.5 | 2.91 | 3.07 | 15.1 | 3.2 | 13.7 | 0.981 | 4.32 | 1.89 | 3.79 | 0.663 | 4.95
11 | CCCCC(=O)N(c1ccc(Nc2c3ccccc3nc3cc([N+](=O)[O-])ccc23)cc1)S(C)(=O)=O | 1.71 | 13.1 | 12.7 | 36 | 18.2 | > 93.1 | 27 | > 100 | 11 | 78.8 | 2.68 | 14.3 | 14.6 | 62.5 | 5.16 | > 47.4
12 | CCc1nc(C)cn1C(=O)OCc1nc2nc(Cl)nc(N3CCOCC3)c2[nH]1 | 1.92 | 3.54 | 1.37 | 2.94 | 1.36 | 2.71 | 2.64 | 9.02 | 1.47 | 3.61 | 0.696 | 3.1 | 1.6 | 3.26 | 0.703 | > 100
13 | CC(=Nc1ccc(N(C)C)cc1)c1ccccc1 | – | > 100 | – | 34.9 | – | – | – | 68.4 | – | > 100 | – | – | – | – | – | 74.7
14 | C/C(=N\NC(=O)c1ccncc1)c1sc(-n2nc(-c3ccccc3)cc2-c2ccccc2)nc1C | – | > 100 | – | > 100 | – | > 31.6 | – | > 100 | – | > 100 | – | > 31.6 | – | > 31.6 | – | > 100
15 | Nc1[nH]nc2nc(-c3cc(Cl)ccc3Cl)cc(-c3ccc(F)cc3)c12 | 20.4 | 42.2 | 16.5 | 34.1 | 30.3 | 56 | 23 | 59.9 | 14.3 | 59.5 | 18.4 | 50.5 | 25.2 | 68.3 | 43.9 | > 100
16 | COc1ccc2c(c1)C(=Nc1ccc(F)c(Cl)c1)c1c-2c(Nc2ccc(F)c(Cl)c2)nc2ccccc12 | 28.1 | 86.8 | > 100 | > 100 | > 100 | > 100 | 29.6 | > 72.9 | 22.6 | > 58.5 | > 60.4 | > 100 | > 60.6 | > 100 | 4.19 | 37

Row | SMILES | GI50 (A498 renal) [µM] | TGI (A498 renal) [µM] | GI50 (COLO 205 colon) [µM] | TGI (COLO 205 colon) [µM] | GI50 (MDA-MB-435) [µM] | TGI (MDA-MB-435) [µM] | GI50 (NCI/ADR-RES ovarian) [µM] | TGI (NCI/ADR-RES ovarian) [µM] | GI50 (OVCAR-8 ovarian) [µM] | TGI (OVCAR-8 ovarian) [µM] | GI50 (RPMI-8226 leukemia) [µM] | TGI (RPMI-8226 leukemia) [µM] | GI50 (UACC-257 melanoma) [µM] | TGI (UACC-257 melanoma) [µM] | GI50 (K-562 leukemia) [µM] | TGI (K-562 leukemia) [µM]
17 | CC1(C)C(N2CCOCC2)CS1(=O)=O (centres undefined) | – | > 10 | – | > 10 | – | > 10 | – | > 10 | – | > 10 | – | > 10 | – | > 10 | – | > 10
18 | C#C[C@@]1(O)[C@@H](CO)O[C@@H](n2cc(Br)c3c(Cl)ccnc32)[C@@H]1O | 0.303 | 2.55 | 0.881 | > 100 | 8.06 | > 100 | 0.422 | 5.03 | 0.343 | 1.91 | 1.73 | 5.97 | > 100 | > 100 | 0.542 | > 100
19 | O=C(/C=C/c1ccccc1)c1cccc2ccccc12 | 2.3 | 6.75 | 5.51 | 18.2 | 2.64 | 14.7 | 3.27 | 19.6 | 1.82 | 3.97 | 1.93 | 5.86 | 4.13 | 15.5 | 1.61 | 5.26
20 | COc1cccc2c1C(=O)c1c(O)c3c(c(O)c1C2=O)C[C@@](O)(/C(CO)=N/NC(=O)CCCCCN1C(=O)C=CC1=O)C[C@@H]3O[C@H]1C[C@H](N)[C@H](O)[C@H](C)O1 | 0.361 | 2.15 | 0.8 | 10.2 | 2.03 | 13.4 | > 100 | > 100 | 1.14 | 97.4 | 0.32 | > 28.2 | 1.06 | 4.32 | 0.825 | > 52.5
21 | C[C@@H](Nc1cc(F)cc(F)c1)c1cc(C(=O)N(C)C)cc2c(=O)cc(N3CCOCC3)oc12 | – | < 0.0203 | 7.09 | 51.1 | 8.17 | > 100 | > 83.9 | > 100 | 25.5 | > 100 | 36.7 | > 100 | 2.6 | > 100 | 67.2 | > 100
22 | C[C@]12CC[C@H](O[C@@H]3O[C@H](CO[C@@H]4O[C@H](CO)[C@@H](O)[C@H](O)[C@H]4O)[C@@H](O)[C@H](O)[C@H]3O)C[C@@H]1CC[C@@H]1[C@@H]2CC[C@]2(C)[C@@H](C3=CC(=O)OC3)CC[C@]12O | – | 70 | – | > 76.9 | – | > 100 | – | 39.3 | – | 96.9 | – | > 87.9 | – | > 73.3 | – | > 100
23 | CCOc1cc(-c2nncn2C)ccc1Nc1ncc2cc(C)nc(NCC(C)(C)C)c2n1 | 0.514 | > 100 | 1.4 | > 100 | > 100 | > 100 | 1.06 | > 100 | – | > 100 | 2.31 | > 100 | > 100 | > 100 | – | > 100
24 | COc1ccc(Oc2nc3cc(N)cc(N)c3nc2-c2ccccc2)cc1 | 49.3 | > 100 | > 100 | > 100 | 40.6 | > 100 | 59.9 | > 100 | 32.3 | > 100 | – | 71.4 | > 100 | > 100 | 26.1 | > 100
25 | COc1cc(C(=O)/C=C/c2cc(-c3ccc4c(c3)OCO4)n[nH]2)cc(OC)c1OC | 1.75 | 4.65 | 2.08 | 4.66 | 2.28 | 5.8 | 2.99 | 12.3 | 2.35 | 6.37 | 0.506 | 2.53 | 2.95 | 9.46 | 2.17 | > 100
26 | O=S1(=O)c2ccccc2N(c2ccccc2)c2nnnn21 | – | 55.4 | – | 48.5 | – | > 100 | – | > 100 | – | > 100 | – | – | – | > 100 | – | > 100
27 | CN(C)c1ccc(/C=C(\C#N)c2cc3ccccc3[nH]2)cc1 | 0.391 | 6.61 | 0.566 | 7.39 | 0.228 | 0.641 | 0.49 | > 100 | 2.35 | > 100 | 0.63 | 4.91 | 4.86 | > 100 | – | –
28 | COc1cc(-c2nn(-c3ccc(NC(=O)Nc4cc(C(F)(F)F)cc(C(F)(F)F)c4)cc3)cc2-c2ccncc2)ccc1Cl | 1.81 | 3.79 | 1.6 | 3.32 | 1.88 | 3.99 | 2 | 7.38 | 2.48 | 27.8 | – | – | 2.3 | 7.73 | 2.48 | > 100
29 | Nc1ccccc1C#C/C=C\C#Cc1ccccc1C#CCO | – | – | 11.8 | 31.6 | 1.51 | 4.21 | 6.17 | 21.4 | 8.36 | 27.1 | 24.3 | > 50 | 11.4 | 45.2 | 11.1 | > 50
30 | NCCCNc1nc2ccccc2c2c(=O)c3cc(F)ccc3sc12 | 1.48 | 3.36 | 1.69 | 3.48 | 1.75 | 3.27 | 1.7 | 3.36 | – | – | 1.77 | 3.65 | 1.79 | 3.81 | – | –
31 | COc1cccc(Nc2ncnc3cc(NC(=O)CCl)ccc23)c1 | 1.72 | 3.81 | – | – | 0.821 | 2.21 | – | – | 1.88 | 5.16 | – | – | 1.41 | 3.02 | 0.343 | 2
32 | O=C(Oc1ccccc1)N(c1ccccc1)c1ccccc1 | 10.4 | 62.7 | 19.5 | 44.7 | 24.4 | 75.9 | 21.8 | 72.2 | 31.8 | > 100 | – | – | 26.4 | 83 | 25.8 | > 100
